According to ChEMBL document CHEMBL1156904, “Part II: piperazinyl-glutamate-pyridines as potent orally bioavailable P2Y12 antagonists for inhibition of platelet aggregation” (Bioorg Med Chem Lett, 2010):

Columns and labels:
[1] = Metabolic stability in human microsomes; assay type: ADME, Microsome
P2Y purinoceptor 12 = P2Y purinoceptor 12 (Homo sapiens, UniProt Q9H244); experiment: Inhibition of human P2Y12 receptor expressed in CHO cells
[2] = Metabolic stability in rat microsomes; assay type: ADME, Microsome
[3] = Antiplatelet activity in human platelet rich plasma assessed as inhibition of ADP-induced platelet aggregation; assay type: functional
[4] = Antiplatelet activity in human platelet rich plasma assessed as inhibition of ADP-induced platelet aggregation relative to AZD-6140; assay type: functional

Chain of P2Y purinoceptor 12 (Q9H244 whole entry): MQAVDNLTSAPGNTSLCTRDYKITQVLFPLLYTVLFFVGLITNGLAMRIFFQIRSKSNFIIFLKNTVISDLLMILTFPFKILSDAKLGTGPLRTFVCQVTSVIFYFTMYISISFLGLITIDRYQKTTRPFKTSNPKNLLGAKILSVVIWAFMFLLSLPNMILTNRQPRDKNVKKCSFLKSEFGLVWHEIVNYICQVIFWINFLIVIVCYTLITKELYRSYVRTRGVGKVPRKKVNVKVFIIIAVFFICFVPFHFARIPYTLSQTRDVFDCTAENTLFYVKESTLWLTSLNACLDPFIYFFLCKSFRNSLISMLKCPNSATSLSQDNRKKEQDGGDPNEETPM

| Stability [1] | Ki (P2Y purinoceptor 12) | Stability [2] | IC50 [3] | SMILES | fold change (FC) [4] |
| --- | --- | --- | --- | --- | --- |
| Stable | 0.0026 µM | Stable | 6.6 µM | CCCCCOC(=O)N1CCN(C(=O)[C@H](CCC(=O)O)NC(=O)c2cc(N3CC[C@@H](C(=O)N(CC)CC)C3)cc(-c3ccccc3)n2)CC1 | 5 |
| Stable | 0.00064 µM | Stable | 1.9 µM | CCCCCOC(=O)N1CCN(C(=O)[C@H](CCC(=O)O)NC(=O)c2cc(N3CC(C(N)=O)C3)cc(-c3ccccc3)n2)CC1 |  |
| Stable | 0.006 µM | Stable | 0.75 µM | CCCCCOC(=O)N1CCN(C(=O)[C@H](CCC(=O)O)NC(=O)c2cc(N3CCC(C(=O)NC(C)C)CC3)cc(-c3ccccc3)n2)CC1 | 0.64 |
| Stable | 0.0014 µM | Stable | 2.2 µM | CCCCCOC(=O)N1CCN(C(=O)[C@H](CCC(=O)O)NC(=O)c2cc(N3CC[C@@H](C(=O)N4CCCC4)C3)cc(-c3ccccc3)n2)CC1 | 1.7 |
| Stable | 0.0043 µM | Stable | 0.62 µM | CCCCOC(=O)N1CCN(C(=O)[C@H](CCC(=O)O)NC(=O)c2cc(N3CCC(C(=O)NC(C)C)CC3)cc(-c3ccccc3)n2)CC1 | 0.82 |
| Stable | 0.01 µM | Stable | 2.6 µM | CCCCCOC(=O)N1CCN(C(=O)[C@H](CCC(=O)O)NC(=O)c2cc(N3CCCC(CN4CCCC4=O)C3)cc(-c3ccccc3)n2)CC1 (some centres undefined) | 3.8 |
| Stable | 0.026 µM | Stable | 7.7 µM | CCCCCOC(=O)N1CCN(C(=O)[C@H](CCC(=O)O)NC(=O)c2cc(N3CCCC(C(=O)N(CC)CC)C3)cc(-c3ccccc3)n2)CC1 (some centres undefined) | 4.2 |
| Stable | 0.0015 µM | Stable | 0.95 µM | CCCCCOC(=O)N1CCN(C(=O)[C@H](CCC(=O)O)NC(=O)c2cc(N3CCC(CNCC)CC3)cc(-c3ccccc3)n2)CC1 | 1.2 |
| Stable | 0.008 µM | Stable | 0.75 µM | CCCCCOC(=O)N1CCN(C(=O)[C@H](CCC(=O)O)NC(=O)c2cc(N3CCC(CCN4CCCC4)CC3)cc(-c3ccccc3)n2)CC1 | 0.59 |
| Stable | 0.0071 µM | Stable | 1.3 µM | CCCCCOC(=O)N1CCN(C(=O)[C@H](CCC(=O)O)NC(=O)c2cc(N3CC(CNC)C3)cc(-c3ccccc3)n2)CC1 | 1.9 |
| Stable | 0.0038 µM | Stable | 1.3 µM | CCCCOC(=O)N1CCN(C(=O)[C@H](CCC(=O)O)NC(=O)c2cc(N3CCC(CNCC)CC3)cc(-c3ccccc3)n2)CC1 | 1.4 |
| Stable | 0.026 µM | Stable | 3 µM | CCCCCOC(=O)N1CCN(C(=O)[C@H](CCC(=O)O)NC(=O)c2cc(N3CC[C@H](C(=O)N(C)C)C3)cc(-c3ccccc3)n2)CC1 | 4.1 |
| Stable | 0.0017 µM | Stable | 4.8 µM | CCCCCOC(=O)N1CCN(C(=O)[C@H](CCC(=O)O)NC(=O)c2cc(N3CC[C@H](C(=O)N(CC)CC)C3)cc(-c3ccccc3)n2)CC1 | 4.6 |
| Stable | 0.031 µM | Stable | 5.2 µM | CCCCCOC(=O)N1CCN(C(=O)[C@H](CCC(=O)O)NC(=O)c2cc(N3CCCC(OC)C3)cc(-c3ccccc3)n2)CC1 (some centres undefined) | 6.3 |
| Stable | 0.0026 µM | Stable | 0.63 µM | CCCCOC(=O)N1CCN(C(=O)[C@H](CCC(=O)O)NC(=O)c2cc(N3CCC(C(=O)N(C)C)CC3)cc(-c3ccccc3)n2)CC1 | 0.53 |
| Stable | 0.0017 µM | Stable | 0.51 µM | CCCCCOC(=O)N1CCN(C(=O)[C@H](CCC(=O)O)NC(=O)c2cc(N3CCN(CC(N)=O)CC3)cc(-c3ccccc3)n2)CC1 | 1.8 |
| Stable | 0.018 µM | Stable | 2.4 µM | CCCCCOC(=O)N1CCN(C(=O)[C@H](CCC(=O)O)NC(=O)c2cc(N3CCC[C@H](O)C3)cc(-c3ccccc3)n2)CC1 | 3.7 |
| Stable | 0.0028 µM | Stable | 0.71 µM | CCCCCOC(=O)N1CCN(C(=O)[C@H](CCC(=O)O)NC(=O)c2cc(N3CCN(C(=O)CN(C)C)CC3)cc(-c3ccccc3)n2)CC1 | 2.5 |
| Stable | 0.0085 µM | Stable | 0.51 µM | CCCCCOC(=O)N1CCN(C(=O)[C@H](CCC(=O)O)NC(=O)c2cc(N3CCN(CCN(C)C)CC3)cc(-c3ccccc3)n2)CC1 | 0.7 |
| Stable | 0.0063 µM | Stable | 1.5 µM | CCCCCOC(=O)N1CCN(C(=O)[C@H](CCC(=O)O)NC(=O)c2cc(N3CCN(CCOCCC)CC3)cc(-c3ccccc3)n2)CC1 | 3.1 |
| Stable | 0.004 µM | Stable | 0.91 µM | CCCCOC(=O)N1CCN(C(=O)[C@H](CCC(=O)O)NC(=O)c2cc(N3CCC(CNC)CC3)cc(-c3ccccc3)n2)CC1 | 1 |
| Stable | 0.002 µM | Stable | 1.8 µM | CCCCCOC(=O)N1CCN(C(=O)[C@H](CCC(=O)O)NC(=O)c2cc(N3CC(C(=O)NCC)C3)cc(-c3ccccc3)n2)CC1 | 1.5 |
| Stable | 0.015 µM | Stable | 0.78 µM | CCCCCOC(=O)N1CCN(C(=O)[C@H](CCC(=O)O)NC(=O)c2cc(N3CCC(CN)CC3)cc(-c3ccccc3)n2)CC1 | 0.62 |
| Stable | 0.002 µM | Stable | > 10 µM | CCCCCOC(=O)N1CCN(C(=O)[C@H](CCC(=O)O)NC(=O)c2cc(N3CC(OC)C3)cc(-c3ccccc3)n2)CC1 |  |
| Stable | 0.0033 µM | Stable | 1.4 µM | CCCCCOC(=O)N1CCN(C(=O)[C@H](CCC(=O)O)NC(=O)c2cc(N3CC(N4CCOCC4)C3)cc(-c3ccccc3)n2)CC1 |  |
| Stable | 0.0055 µM | Stable | 2.7 µM | CCCCCOC(=O)N1CCN(C(=O)[C@H](CCC(=O)O)NC(=O)c2cc(N3CC(N(C)C)C3)cc(-c3ccccc3)n2)CC1 |  |
| Stable | 0.022 µM | Stable | 11 µM | CCCCCOC(=O)N1CCN(C(=O)[C@H](CCC(=O)O)NC(=O)c2cc(N3CCCC(COC)C3)cc(-c3ccccc3)n2)CC1 (some centres undefined) |  |
| Stable | 0.0017 µM | Stable | 2 µM | CCCCCOC(=O)N1CCN(C(=O)[C@H](CCC(=O)O)NC(=O)c2cc(N3CC(C(=O)NC)C3)cc(-c3ccccc3)n2)CC1 |  |
